Laboratory results as given in the supplement of paper PMC11424490.

Key:
Test in all cases: combination cScore with sotorasib (Bliss gap around IC50) (%PoC); higher = stronger additive effect
NCI-H2122 = test system: NCI-H2122
Outline: (§1)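 NCI-H2122, NCI-H358 and SW837 cells (500 or 800 per well, 384-well plates) were dosed in concentration matrices after 24 h and grown 72 h, or 144 h for SW837. CellTiter-Glo luminescence was normalised to vehicle wells as percent of control and fitted with four-parameter curves. The score averages the Bliss-independence gap (expected minus measured viability) over a field around both monotherapy IC50s, or at the top concentrations when no IC50 was reached.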

NCI-H358 = test system: NCI-H358
Outline: as §1

SW837 = test system: SW837
Outline: as §1

Compound | combination cScore with sotorasib (NCI-H2122) | combination cScore with sotorasib (NCI-H358) | combination cScore with sotorasib (SW837)
Cc1nc(NC(=O)N2CCC[C@H]2C(N)=O)sc1-c1ccnc(C(C)(C)C(F)(F)F)c1 [BYL-719] + C=CC(=O)N1CCN(c2nc(=O)n(-c3c(C)ccnc3C(C)C)c3nc(-c4c(O)cccc4F)c(F)cc23)[C@@H](C)C1 [sotorasib] | 24.8 | 5.72 | 24.4
O=C(/C=C/c1cccc(S(=O)(=O)Nc2ccccc2)c1)NO [Belinostat] + C=CC(=O)N1CCN(c2nc(=O)n(-c3c(C)ccnc3C(C)C)c3nc(-c4c(O)cccc4F)c(F)cc23)[C@@H](C)C1 [sotorasib] | 10.8 | -2.69 | 9.09
CN(C)C/C=C/C(=O)Nc1cc2c(Nc3ccc(F)c(Cl)c3)ncnc2cc1O[C@H]1CCOC1 [Afatinib] + C=CC(=O)N1CCN(c2nc(=O)n(-c3c(C)ccnc3C(C)C)c3nc(-c4c(O)cccc4F)c(F)cc23)[C@@H](C)C1 [sotorasib] | 22.8 | 11.4 | 20.1
Oc1nc(-c2ccc(C(F)(F)F)cc2)nc2c1CSCC2 [XAV939] + C=CC(=O)N1CCN(c2nc(=O)n(-c3c(C)ccnc3C(C)C)c3nc(-c4c(O)cccc4F)c(F)cc23)[C@@H](C)C1 [sotorasib] | 14.2 | 7.36 | 7.47
CCS(=O)(=O)Nc1ccc2c(c1)/C(=C(/Nc1ccc(CN3CCCCC3)cc1)c1ccccc1)C(=O)N2 [Hesperadin] + C=CC(=O)N1CCN(c2nc(=O)n(-c3c(C)ccnc3C(C)C)c3nc(-c4c(O)cccc4F)c(F)cc23)[C@@H](C)C1 [sotorasib] | 12.3 | 4.25 | 5.4
C=CC(=O)Nc1cc(Nc2nccc(-c3cn(C)c4ccccc34)n2)c(OC)cc1N(C)CCN(C)C [Osimertinib] + C=CC(=O)N1CCN(c2nc(=O)n(-c3c(C)ccnc3C(C)C)c3nc(-c4c(O)cccc4F)c(F)cc23)[C@@H](C)C1 [sotorasib] | 16.7 | 11.6 | 15.9
Cc1c(CN2CCC(Nc3ncnc4sc(CC(F)(F)F)cc34)CC2)ccc2[nH]c(C#N)cc12 [MI-463] + C=CC(=O)N1CCN(c2nc(=O)n(-c3c(C)ccnc3C(C)C)c3nc(-c4c(O)cccc4F)c(F)cc23)[C@@H](C)C1 [sotorasib] | 10.2 | 2.97 | 12.3
C[C@@H]1OCC2(CCN(c3cnc(Sc4ccnc(N)c4Cl)c(N)n3)CC2)[C@@H]1N [TNO155] + C=CC(=O)N1CCN(c2nc(=O)n(-c3c(C)ccnc3C(C)C)c3nc(-c4c(O)cccc4F)c(F)cc23)[C@@H](C)C1 [sotorasib] | 41.9 | 10.6 | 41.3
COc1cccc2c1C(=O)c1c(O)c3c(c(O)c1C2=O)C[C@@](O)(C(C)=O)C[C@@H]3O[C@H]1C[C@H](N)[C@H](O)[C@H](C)O1 [Daunorubicin] + C=CC(=O)N1CCN(c2nc(=O)n(-c3c(C)ccnc3C(C)C)c3nc(-c4c(O)cccc4F)c(F)cc23)[C@@H](C)C1 [sotorasib] | 18.1 | 2.01 | 5.95
Cc1cc(C)c(CNC(=O)c2cc(-c3ccc(N4CCNCC4)nc3)cc3c2c(C)cn3C2CCCC2)c(=O)[nH]1 + C=CC(=O)N1CCN(c2nc(=O)n(-c3c(C)ccnc3C(C)C)c3nc(-c4c(O)cccc4F)c(F)cc23)[C@@H](C)C1 [sotorasib] | 10.7 | 2.26 | 1.67
COc1ncc(-c2ccc3nccc(-c4ccnnc4)c3c2)cc1NS(=O)(=O)c1ccc(F)cc1F + C=CC(=O)N1CCN(c2nc(=O)n(-c3c(C)ccnc3C(C)C)c3nc(-c4c(O)cccc4F)c(F)cc23)[C@@H](C)C1 [sotorasib] | 20.8 | 5.96 | 8.72
NC1(c2ccc(-c3nc4ccn5c(=O)[nH]nc5c4cc3-c3ccccc3)cc2)CCC1 [MK-2206] + C=CC(=O)N1CCN(c2nc(=O)n(-c3c(C)ccnc3C(C)C)c3nc(-c4c(O)cccc4F)c(F)cc23)[C@@H](C)C1 [sotorasib] | 15.5 | 1.28 | 18
Cc1c(N)nc([C@H](CC(N)=O)NC[C@H](N)C(N)=O)nc1C(=O)N[C@H](C(=O)N[C@H](C)[C@@H](O)[C@H](C)C(=O)N[C@H](C(=O)NCCc1nc(-c2nc(C(=O)NCCC[S+](C)C)cs2)cs1)[C@@H](C)O)[C@@H](OC1OC(CO)C(O)C(O)C1OC1OC(CO)C(O)C(OC(N)=O)C1O)c1cnc[nH]1 (stereo not given in full) [Bleomycin] + C=CC(=O)N1CCN(c2nc(=O)n(-c3c(C)ccnc3C(C)C)c3nc(-c4c(O)cccc4F)c(F)cc23)[C@@H](C)C1 [sotorasib] | 19.9 | -4.36 | 11.1
CC/C(=C(\c1ccccc1)c1ccc(OCCN(C)C)cc1)c1ccccc1 [Tamoxifen] + C=CC(=O)N1CCN(c2nc(=O)n(-c3c(C)ccnc3C(C)C)c3nc(-c4c(O)cccc4F)c(F)cc23)[C@@H](C)C1 [sotorasib] | 11.1 | 2.01 | 0.835
COc1cc(N2CCC(N3CCN(C)CC3)CC2)ccc1Nc1ncc(Cl)c(Nc2ccccc2S(=O)(=O)C(C)C)n1 [NVP-TAE684] + C=CC(=O)N1CCN(c2nc(=O)n(-c3c(C)ccnc3C(C)C)c3nc(-c4c(O)cccc4F)c(F)cc23)[C@@H](C)C1 [sotorasib] | 14.6 | 5.9 | 22.3
CC1(C)CCC(c2ccc(Cl)cc2)=C(CN2CCN(c3ccc(C(=O)NS(=O)(=O)c4ccc(N[C@H](CCN5CCOCC5)CSc5ccccc5)c(S(=O)(=O)C(F)(F)F)c4)cc3)CC2)C1 [ABT-263] + C=CC(=O)N1CCN(c2nc(=O)n(-c3c(C)ccnc3C(C)C)c3nc(-c4c(O)cccc4F)c(F)cc23)[C@@H](C)C1 [sotorasib] | 15.1 | 2.08 | 20.7
COc1cc2ncnc(Nc3ccc(F)c(Cl)c3)c2cc1OCCCN1CCOCC1 [Gefitinib] + C=CC(=O)N1CCN(c2nc(=O)n(-c3c(C)ccnc3C(C)C)c3nc(-c4c(O)cccc4F)c(F)cc23)[C@@H](C)C1 [sotorasib] | 26.4 | 8.62 | 23.2
Cc1c(Cn2c(C)nc3c(C(=O)O)cc(N4CCOCC4)cc32)cccc1C(F)(F)F + C=CC(=O)N1CCN(c2nc(=O)n(-c3c(C)ccnc3C(C)C)c3nc(-c4c(O)cccc4F)c(F)cc23)[C@@H](C)C1 [sotorasib] | 5.26 | -2.39 | 9.96
CC(C)C[C@H](NC(=O)[C@H](Cc1ccccc1)NC(=O)c1cnccn1)B(O)O [Bortezomib] + C=CC(=O)N1CCN(c2nc(=O)n(-c3c(C)ccnc3C(C)C)c3nc(-c4c(O)cccc4F)c(F)cc23)[C@@H](C)C1 [sotorasib] | 5.05 | 0.21 | -5.84
O=C(c1c(F)ccc(NS(=O)(=O)N2CC[C@@H](F)C2)c1F)c1c[nH]c2ncc(-c3cnc(C4CC4)nc3)cc12 [PLX8394] + C=CC(=O)N1CCN(c2nc(=O)n(-c3c(C)ccnc3C(C)C)c3nc(-c4c(O)cccc4F)c(F)cc23)[C@@H](C)C1 [sotorasib] | 24.2 | 6.09 | 3.79
O=C1c2c(O)ccc(O)c2C(=O)c2c(NCCNCCO)ccc(NCCNCCO)c21 [Mitoxantrone] + C=CC(=O)N1CCN(c2nc(=O)n(-c3c(C)ccnc3C(C)C)c3nc(-c4c(O)cccc4F)c(F)cc23)[C@@H](C)C1 [sotorasib] | 11.3 | 1.3 | 7.33
O=c1cc(-c2cccc3c2Sc2ccccc2S3)oc(N2CCOCC2)c1 + C=CC(=O)N1CCN(c2nc(=O)n(-c3c(C)ccnc3C(C)C)c3nc(-c4c(O)cccc4F)c(F)cc23)[C@@H](C)C1 [sotorasib] | 11.2 | 12.9 | 10.6
O=C(/C=C/N1C[C@H]2C[C@@H]1CN2c1ccccn1)c1ccccc1O [PFI-3] + C=CC(=O)N1CCN(c2nc(=O)n(-c3c(C)ccnc3C(C)C)c3nc(-c4c(O)cccc4F)c(F)cc23)[C@@H](C)C1 [sotorasib] | 15.8 | 0.77 | -2.6
COc1cc2nc(C)nc(N[C@H](C)c3cc(N)cc(C(F)(F)F)c3)c2cc1O[C@H]1CCOC1 [BI-3406 (SOSi)] + C=CC(=O)N1CCN(c2nc(=O)n(-c3c(C)ccnc3C(C)C)c3nc(-c4c(O)cccc4F)c(F)cc23)[C@@H](C)C1 [sotorasib] | 28.9 | 13 | 9.14
Cc1c(-c2c(-c3ccc(F)o3)sc3ncnc(O[C@H](Cc4ccccc4OCc4ccnn4CC(F)(F)F)C(=O)O)c23)ccc(OCCN2CCN(C)CC2)c1Cl + C=CC(=O)N1CCN(c2nc(=O)n(-c3c(C)ccnc3C(C)C)c3nc(-c4c(O)cccc4F)c(F)cc23)[C@@H](C)C1 [sotorasib] | 10.4 | 4.06 | 2.8
